# Experiments:
# [1] = system: cynomolgus monkey GPC3 on transfected CHO-S cells; assay: Binding to transfected CHO-S cells by flow cytometry; conditions: 24 h at 4 °C
# Procedure: Briefly, CHO—S cells were transiently transfected for −24 hours with a pTT5-based expression plasmid encoding human GPC3 or cynomolgus monkey GPC3, 0.5 μg DNA per 1 million cells, using the Neon™ Transfection System (Thermo Fisher Scientific Corp., Waltham, MA), to transiently express human or cynomolgus monkey GPC3. Following transfection, cells were seeded at 50,000 cells/well in V-bottom 96-well plates and treated with antibody for 24 hours at 4° C. to prevent internalization. […] Following incubation and washing, fluorescence was detected by flow cytometry on a BD LSRFortessa™ Cell Analyzer (BD Biosciences, Franklin Lake, NJ) with 1,000 minimum events collected per well. AF647/APC-A GeoMean (fluorescence signal geometric mean, proportional to anti-Human AF647 binding) in live cell population was plotted against antibody concentration using GraphPad Prism Version 9 (GraphPad Software, San Diego, CA). The Bmax and Kd values were derived from the “Specific binding with Hill slope” nonlinear regression curve fit in GraphPad Prism Version 9.
# Briefly, CHO—S cells were transiently transfected for −24 hours with a pTT5-based expression plasmid encoding human GPC3 or cynomolgus monkey GPC3, 0.5 μg DNA per 1 million cells, using the Neon™ Transfection System (Thermo Fisher Scientific Corp., Waltham, MA), to transiently express human or cynomolgus monkey GPC3. […]
# [2] = system: JHH-7 cells (high GPC3-expressing); assay: Internalization by flow cytometry (quenched AF488); format: cell-based; conditions: JHH-7; 5 nM; 24 h
# Procedure: (§1) Cells were seeded at 50,000 cells/well in 48-well plates and incubated overnight under standard culturing conditions (37° C./5% CO2) in Gibco™ Dulbecco's Modified Eagle Media (DMEM) (Thermo Fisher Scientific, Waltham, MA; Cat. No. 11995040) with 10% Fetal Bovine Serum (FBS) (Thermo Fisher Scientific, Waltham, MA; Cat. No. 12483020) for Hep G2 cells, and Gibco™ William's E Medium, GlutaMAX™ Supplement (Thermo Fisher Scientific, Waltham, MA; Cat. No. 32551020) with 10% FBS (Thermo Fisher Scientific, Waltham, MA; Cat. No. 12483020) for JHH-7 cells. Coupled antibodies were added to cells the following day at 10 nM or at 100 nM and incubated under standard culturing conditions for 5-24 hours to allow for internalization. Following incubation, cells were dissociated, washed, and surface AF488 fluorescence was quenched using an anti-AF488 antibody (Life Technologies, Carlsbad, CA; Cat. No. A-11094) at 100 nM for 30 minutes at 4° C. Quenched AF488 fluorescence (internalized fluorescence) was detected by flow cytometry on a BD LSRFortessa™ Cell Analyzer (BD Biosciences, Franklin Lake, NJ) with 1,000 minimum events collected per well.
# as §1, with “CO2)” for “CO2) in Gibco™ Dulbecco's Modified Eagle Media (DMEM) (Thermo Fisher Scientific, Waltham, MA; Cat. No. 11995040) with 10% Fetal Bovine Serum (FBS) (Thermo Fisher Scientific, Waltham, MA; Cat. No. 12483020) for Hep G2 cells, and”, “12483020).” for “12483020) for JHH-7 cells.”, “5” for “10 nM or at 100”, “24” for “5-24”, “well. […]” for “well.”
# Sequence of cynomolgus monkey GPC3 on transfected CHO-S cells (as listed by the source): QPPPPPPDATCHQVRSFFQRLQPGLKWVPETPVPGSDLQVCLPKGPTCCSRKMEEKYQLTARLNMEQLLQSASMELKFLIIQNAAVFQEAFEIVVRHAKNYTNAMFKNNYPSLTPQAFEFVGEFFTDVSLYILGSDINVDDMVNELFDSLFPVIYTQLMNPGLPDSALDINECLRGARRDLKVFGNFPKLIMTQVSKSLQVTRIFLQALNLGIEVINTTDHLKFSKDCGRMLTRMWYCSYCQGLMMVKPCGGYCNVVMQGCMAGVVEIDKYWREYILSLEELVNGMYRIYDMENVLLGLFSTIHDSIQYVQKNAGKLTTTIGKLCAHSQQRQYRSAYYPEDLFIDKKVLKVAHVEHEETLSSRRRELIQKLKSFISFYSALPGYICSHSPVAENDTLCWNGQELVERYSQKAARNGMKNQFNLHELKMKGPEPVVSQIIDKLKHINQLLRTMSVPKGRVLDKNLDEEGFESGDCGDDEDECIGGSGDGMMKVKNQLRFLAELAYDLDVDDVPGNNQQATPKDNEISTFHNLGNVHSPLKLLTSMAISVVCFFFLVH
substance,measurement,setting,value
palivizumab,"binding to CHO-S cells expressing cynomolgus monkey GPC3, in words",[1],did not exhibit any binding
same,"internalization, in words",[2],minimal internalization

# Reference: patent publication US20250295799A1, “ANTIBODY-DRUG CONJUGATES TARGETING GLYPICAN-3 AND METHODS OF USE” (Zymeworks BC Inc., priority 2022, published 2025)
